Entries after “also recorded” stand apart in the source; their conditions may differ.
Key:
[1] = Hemolysis assay (stability of erythrocytes); assay type: cell-based, human; details: male, human, heparinized whole blood diluted with saline (erythrocytes)
Description: (§1) Heparinized whole blood was used from a healthy volunteer. The whole blood (10 mL) was diluted with saline solution (90 mL). For each UV-Vis measurement, 2.5 mL of diluted blood was used. For each blood sample, 1 mL of a saline solution containing hydrochlorides 1–8 at concentrations of 5, 50, and 500 mg/L was added. As a control were used blood samples with the addition of 1% solution of DMSO in saline and 1% solution of SDS in saline. In all cases, the measurements were repeated twice for each concentration. […] The cells were centrifuged, and the absorbance of the supernatant, which contained plasma and lysed erythrocytes, was measured at 540 nm. The percentage of lysis was calculated from a standard curve of lysed erythrocytes treated with SDS [52].

erythrocytes = experiment: Hemolysis assay (stability of erythrocytes); assay type: cell-based, human
Description: as §1

human blood plasma [2] = experiment: Activated partial thromboplastin time (aPTT) clotting assay; assay type: biochemical
Description: (§2) Human blood plasma was isolated from fresh buffy coats (collected onto the citrate-dextrose solution—ACD) purchased from the Regional Centre of Blood Donation and Blood Treatment in Lodz, Poland. In the isolation procedure, the buffy coats (60 mL units) were divided into volumes of 10 mL and centrifuged (4000 rpm/15 min) in 15 mL tubes. Next, 1 mL solutions of each amide 1–8 were prepared in distilled water at concentrations of 10, 25, and 50 mg/L. Then, 450 μL of plasma and 50 μL of each amide at the tested concentrations were placed into 1.5 mL vials. The vials were vortexed (Vortex Biosan V-1 plus), incubated at 37 °C on a thermoblock (Dry Block Thermostat Biosan TDB-120), and analyzed using a Kselmed K-3002 OPTIC coagulometer (Grudziądz, Poland), based on the manufacturer’s protocols (described below). The control sample was native blood plasma, untreated with any of the examined substances.
Fifty microliters of control plasma and plasma samples treated with the amides were transferred to measuring cuvettes and placed in the thermoblock module (37 °C) of the coagulometer (KSELMED, K-3002 Optic). Then, 50 μL of Dia-APTT reagent (DIAGON Kft. Hungary; cat. no. 72048) was added. The mixture was incubated for 180 s at 37 °C. Finally, 50 μL of reagent Dia-CaCl2 (DIAGON Kft. Hungary; cat. no. 41192) was added. Measurements were started immediately.

human blood plasma [3] = experiment: Thrombin time (TT) clotting assay; assay type: biochemical
Description: as §2
Both 100 μL of control plasma and plasma samples treated with the amides were transferred to measuring cuvettes, which were placed in the thermoblock module (37 °C) of the coagulometer (KSELMED K-3002 Optic). Then, 100 μL of thrombin solution (4.5 U/mL, in 0.9% NaCl; Biomed, Lublin, Poland) was added to the cuvette. Measurements were started immediately.

human blood plasma [4] = experiment: Clot formation and fibrinolysis (CFF) assay; assay type: biochemical; details: for Amax (maximum of fibrin clot absorbance at 360 nm) / VmaxC (of Fibrin Polymerization) / VmaxF (of Fibrin Clot Lysis): control plasma assumed as 100%, mean ± SD, n = 5–7; for effect on fibrin polymerization (VmaxC) in words: tested at 10, 25, 50 mg/L
From the text: The CFF assay enables analysis of both the blood plasma coagulation process and fibrinolysis efficiency. The thrombin enzyme in the reagent mixture initiates blood plasma fibrinogen polymerization, leading to an increase in absorbance in the sample until the maximal absorbance (Amax) is attained. The fibrinolytic activity of blood plasma is induced by the tissue-type plasminogen activator (t-PA). The activation of fibrinolysis in the tested samples leads to fibrin clot degradation and decreases the absorbance to the baseline.
Figure 11 An exemplary curve of blood plasma coagulation and clot lysis recorded during the clot formation and fibrinolysis (CFF) assay. The first step in the CFF test involves activation of the blood plasma coagulation cascade and fibrin clot formation (1). It is characterized by the maximal velocity of the fibrin polymerization parameter (VmaxC). The maximal absorbance (Amax) peak corresponds to the fibrin stabilization phase and is an indicator of fibrin clot thickness (2). The third step of the CFF assay covers the activation of fibrinolytic mechanisms and fibrin clot degradation (3) and is described by the maximal velocity of clot lysis (VmaxF).
Thrombin was purchased from BioMed (Lublin, Poland). A tissue-type plasminogen activator (Actilyse®) was purchased from Boehringer Ingelheim, Ingelheim am Rhein, Germany. Kinetic measurements were executed using a SpectrostarNano microplate spectrophotometer (BMG LabTech, Ortenberg, Germany).
Measurements were performed using a kinetic model, as described in our previous work. Briefly, blood plasma was preincubated with the examined substances (at final concentrations of 10, 25, and 50 mg/L) for 15 min at 37 °C. Then, 100 μL of blood plasma was added to microtiter plate wells, which was followed by 200 μL of the reagent mixture (0.75 U/mL thrombin, 225 ng/mL t-PA and 7.5 mM CaCl2) suspended in tris-buffered saline (0.05 M TBS, 0.9% NaCl; pH 7.4). Measurements of absorbance changes were started immediately and continued for 60 min at 37 °C, λ = 360 nm. The following parameters were used to determine the effects of the examined substances on the coagulation and fibrinolytic properties of the blood plasma: the maximal velocity of fibrinogen polymerization (VmaxC), which is an indicator of the plasma coagulation efficiency; the maximal absorbance (Amax), which is an indicator of the fibrin clot stabilization and its thickness; the maximal velocity of clot lysis (VmaxF), which is an indicator of blood plasma fibrinolytic activity.

human blood plasma [5] = experiment: Prothrombin time (PT) clotting assay; assay type: biochemical
Description: as §2
Fifty microliters of control plasma and plasma samples treated with the amides were transferred to measuring cuvettes and placed in the thermoblock module (37 °C) of a coagulometer (KSELMED, K-3002 Optic). Then, 100 μL of Dia-PT reagent (DIAGON Kft. Hungary; cat. no. 81100) was added. Measurements were started immediately.

Structure (SMILES) | hemolysis at 45 min, 5 mg/L ([1]; c 5 mg/L, 45 min) [%] | hemolysis at 45 min, 50 mg/L ([1]; c 50 mg/L, 45 min) [%] | hemolysis at 120 min, 50 mg/L ([1]; c 50 mg/L, 120 min) [%] | hemolysis at 240 min, 50 mg/L ([1]; c 50 mg/L, 240 min) [%] | aPTT Time [% of Control] (human blood plasma [2]; c 10 mg/L) | aPTT Time [% of Control] (human blood plasma [2]; c 25 mg/L) | aPTT Time [% of Control] (human blood plasma [2]; c 50 mg/L) | TT Time [% of Control] (human blood plasma [3]; c 10 mg/L) | TT Time [% of Control] (human blood plasma [3]; c 25 mg/L) | TT Time [% of Control] (human blood plasma [3]; c 50 mg/L) | Amax (maximum of fibrin clot absorbance at 360 nm) (human blood plasma [4]; 10 mg/L) [%] | VmaxC (of Fibrin Polymerization) (human blood plasma [4]; 10 mg/L) [%] | VmaxF (of Fibrin Clot Lysis) (human blood plasma [4]; 10 mg/L) [%] | Amax (maximum of fibrin clot absorbance at 360 nm) (human blood plasma [4]; 25 mg/L) [%] | VmaxC (of Fibrin Polymerization) (human blood plasma [4]; 25 mg/L) [%] | VmaxF (of Fibrin Clot Lysis) (human blood plasma [4]; 25 mg/L) [%] | Amax (maximum of fibrin clot absorbance at 360 nm) (human blood plasma [4]; 50 mg/L) [%] | VmaxC (of Fibrin Polymerization) (human blood plasma [4]; 50 mg/L) [%] | VmaxF (of Fibrin Clot Lysis) (human blood plasma [4]; 50 mg/L) [%] | effect on fibrin polymerization (VmaxC) in words (human blood plasma [4]) | also measured
Cl.NCC(=O)NCCCCCC(=O)O [Amide 8, 6-(2-Aminoacetamido)hexanoic acid hydrochloride] | 0.08 | 0.44 | 0.71 | 0.36 | 95.1 ± 7.5 % of Control | 97.7 ± 5.9 % of Control | 95.2 ± 7.3 % of Control | 100.0 ± 7.0 % of Control | 94.3 ± 1.3 % of Control | 92.4 ± 5.2 % of Control | 104.83 ± 2.83 | 101.96 ± 6.62 | 82.96 ± 12.49 | 100.18 ± 3.77 | 100.98 ± 6.60 | 96.07 ± 14.56 | 108.64 ± 11.94 | 105.67 ± 8.34 | 66.90 ± 23.22 | did not influence | hemolysis at 120 min, 5 mg/L ([1]; c 5 mg/L, 120 min): 0.74%; hemolysis at 45 min, 50 mg/L ([1]; c 50 mg/L as printed in the third concentration block of amides 7 and 8, 45 min): 0%; hemolysis at 120 min, 50 mg/L ([1]; c 50 mg/L as printed in the third concentration block of amides 7 and 8, 120 min): 0.47%; hemolysis at 240 min, 50 mg/L ([1]; c 50 mg/L as printed in the third concentration block of amides 7 and 8, 240 min): 0.37%; Hemolysis [%] (erythrocytes; c 50 mg/L, 240 min): 0.3%; TT, effect versus control in words (human blood plasma [3]; c = 25, and 50 mg/L): shorter TT than the control sample; melting point: 120 to 123 °C; PT Time [% of Control] (human blood plasma [5]; c 10 mg/L): 93.0 ± 2.2 % of Control; PT Time [% of Control] (human blood plasma [5]; c 25 mg/L): 95.5 ± 4.3 % of Control; PT Time [% of Control] (human blood plasma [5]; c 50 mg/L): 97.2 ± 3.2 % of Control; prothrombin time, effect versus control in words (human blood plasma [5]; concentration not specified (10, 25, 50 mg/L tested)): slightly but statistically significantly reduced; prothrombin time, effect versus control in words (human blood plasma [5]; lowest concentration (10 mg/L)): fell only slightly; also recorded: most effectively lowered
Cl.NCCCCCC(=O)NCC(=O)O [Amide 1, 2-(6-Aminohexanamido)acetic acid hydrochloride] | 0 | 0.5 | 0.18 | 0.35 | 108.3 ± 11.9 % of Control | 105.1 ± 7.7 % of Control | 101.9 ± 9.3 % of Control | 95.9 ± 6.3 % of Control | 96.1 ± 6.8 % of Control | 94.3 ± 8.3 % of Control | 105.98 ± 4.31 | 106.12 ± 4.28 | 99.08 ± 9.93 | 107.24 ± 8.91 | 105.66 ± 6.27 | 87.32 ± 20.27 | 104.62 ± 9.46 | 104.20 ± 3.85 | 95.58 ± 15.97 | Mild pro-coagulant effects | hemolysis at 120 min, 500 mg/L ([1]; c 500 mg/L, 120 min): 0.56%; hemolysis at 240 min, 500 mg/L ([1]; c 500 mg/L, 240 min): 0.42%; Hemolysis [%] (erythrocytes; c 500 mg/L, 45 min): 0.27%; Hemolysis [%] (erythrocytes; c 500 mg/L, 120 min): 0.59%; Hemolysis [%] (erythrocytes; c 500 mg/L, 240 min): 0.58%; aPTT, effect versus control in words (human blood plasma [2]; tested at 10, 25, 50 mg/L): not statistically significant; fibrinolytic activity (VmaxF), effect in words (human blood plasma [4]; 50 µg/mL): no statistically significant effect; prothrombin time, effect versus control in words (human blood plasma [5]; at all concentrations (10, 25, 50 mg/L)): significantly decreased; PT Time [% of Control] (human blood plasma [5]; c 10 mg/L): 96.3 ± 2.5 % of Control; PT Time [% of Control] (human blood plasma [5]; c 25 mg/L): 95.0 ± 2.9 % of Control; PT Time [% of Control] (human blood plasma [5]; c 50 mg/L): 95.7 ± 2.2 % of Control

Source: article PMC9000710, “Synthesis and Hemostatic Activity of New Amide Derivatives” (Molecules, 2022)
